# Assay results taken from paper PMC12107103, “MTA-cooperative PRMT5 inhibitors from cofactor-directed DNA-encoded library screens” (Proceedings of the National Academy of Sciences of the …, 2025).
# Assays:
# [1] = test system: HCT116 MTAP Null tumors; test: Contralateral tumor model, tumor SDMA ELISA, MTAP-deleted tumors; assay type: in vivo, mouse; settings: daily for 4 d
# Experimental: (§1) Mice were implanted contralaterally on their flanks with parental and MTAP-deleted HCT116 cells such that each mouse would carry one WT and one MTAP-deleted tumor (Fig. 4A). This design eliminates variance in compound exposures between groups and allows direct assessment of MTAP status impact on compound effects. […] Four hours post the fourth dose, tumors were analyzed for SDMA content by ELISA. […] This confirms the MTA-selective action of AM-9934 in the tumor setting.
# (§2) HCT116 colon carcinoma WT and MTAP^−^/^− isogenic cells were determined to be free of contamination with mycoplasma as well as a panel of murine viral pathogens in addition to being authenticated. Mice were inoculated s.c. with 2 × 10^6 HCT116 WT cells on the left flank and 2 × 10^6 HCT116 MTAP^−^/^− cells on the right flank in 33% Matrigel. Mice were enrolled once both tumors reached 250 to 500 mm^3 and randomized into vehicle vs. PRMT5i treated groups (N = 3). Vehicle or PRMT5i treatment started on day 14 postimplantation orally and treated once daily for 4 d. […]
# (§3) Preparation of protein lysates from snap-frozen tumors was carried out as follows: samples were collected in a Covaris Tissue Tube (520001 TT1) to be used in conjunction with the CryoPrep. […] The protein concentration of each lysate was then determined using a BCA assay. […]
# [2] = test system: Parental HCT116 cells (MTAP WT); test: SDMA high-content imaging assay, parental cells; assay type: cell-based; settings: Homo sapiens, HCT-116, 72 h, read-out: IC50, reduction of cellular SDMA
# Experimental: (§4) Cells were seeded into 96-well plates and incubated with compound for 3 d before fixing with 4% PFA (in 1× PBS) for 15 min. Cells were then washed once with Wash Buffer (1× PBS + 1% BSA + 0.2% Triton X-100), 100 µL/well for 15 min before blocking for 1 h Using Licor Odyssey blocking reagent ([…]) (100 µL/well). After three washes in Wash Buffer, cells were then stained for 2 h with anti-SDMA antibody (1:2,000 in Wash Buffer), washed three times in Wash Buffer, stained for 1 h in the dark using anti-rabbit Alexa-488 (1:2,000 in Wash Buffer) and Hoechst 33342 (1:5,000), followed by three washes in Wash Buffer before quantifying on a Cellomics Array Scan image system.
# [3] = test system: 24-cell line panel of MTAP WT and MTAP-deleted cell lines; test: Cell viability across 24-cell line panel; assay type: cell-based; settings: MTAP WT vs MTAP-deleted
# Experimental: (§5) Parental (HD PAR-034) and MTAP^−^/^− (HD R02-033) colorectal cancer HCT116 cell lines were obtained from Horizon Discovery and maintained in RPMI1640 supplemented with 10% fetal bovine serum and antibiotics or in McCoy 5A supplemented with 10% fetal bovine serum (for mouse experiments). Other cell lines were obtained from ATCC and maintained according to instructions. Effects of compounds on cell viability were assessed using the CellTiter-Glo Kit from Promega (G7571) after 6 d of compound incubation and quantified using an EnVision® 2105 multimode plate reader (PerkinElmer) in luminescence mode.
# [4] = biological target: T1, PRMT5:MEP50 complex (Homo sapiens, UniProt O14744); test: Thermal Stability Assay (TSA), thermal shift; assay type: binding; settings: for stabilization of the complex by cofactor alone: cofactor added to apo complex (10 µM SIN, 10 µM SAM, or 5 µM MTA)
# T1 construct: FLAG (N); purchased Reaction Biology Corp HMT-2-148; host or cells: insect cells (baculovirus)
# T1 sequence (O14744 2-637 limits assumed): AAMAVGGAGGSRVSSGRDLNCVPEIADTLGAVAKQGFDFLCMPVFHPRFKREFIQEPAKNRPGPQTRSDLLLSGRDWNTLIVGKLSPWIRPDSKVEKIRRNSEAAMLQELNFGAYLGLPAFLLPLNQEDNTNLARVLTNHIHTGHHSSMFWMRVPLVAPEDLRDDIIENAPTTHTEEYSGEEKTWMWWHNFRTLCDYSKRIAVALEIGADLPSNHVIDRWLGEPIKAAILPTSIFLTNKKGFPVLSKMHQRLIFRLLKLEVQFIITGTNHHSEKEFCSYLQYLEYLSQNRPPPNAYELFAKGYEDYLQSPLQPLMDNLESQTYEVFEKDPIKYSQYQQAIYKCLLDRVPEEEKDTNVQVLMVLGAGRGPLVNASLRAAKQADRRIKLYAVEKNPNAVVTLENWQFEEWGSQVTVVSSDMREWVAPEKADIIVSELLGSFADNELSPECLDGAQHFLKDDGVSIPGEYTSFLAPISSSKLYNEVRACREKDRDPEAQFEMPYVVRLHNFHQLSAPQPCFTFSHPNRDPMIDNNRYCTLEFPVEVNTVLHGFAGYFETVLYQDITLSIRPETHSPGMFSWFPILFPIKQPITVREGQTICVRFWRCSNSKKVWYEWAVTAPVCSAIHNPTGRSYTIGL
# T1 sequence (Q9BQA1 2-342 partner limits assumed): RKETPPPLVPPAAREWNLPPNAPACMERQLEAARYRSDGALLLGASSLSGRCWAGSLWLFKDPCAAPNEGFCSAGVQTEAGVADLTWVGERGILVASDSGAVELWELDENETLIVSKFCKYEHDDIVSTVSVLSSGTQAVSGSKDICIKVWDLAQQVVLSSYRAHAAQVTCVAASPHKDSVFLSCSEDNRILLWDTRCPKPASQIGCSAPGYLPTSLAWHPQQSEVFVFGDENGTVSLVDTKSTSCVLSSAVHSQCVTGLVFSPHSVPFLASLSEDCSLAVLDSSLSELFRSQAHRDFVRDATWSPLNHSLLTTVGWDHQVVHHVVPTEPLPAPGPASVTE
# Experimental: 0.1 µM PRMT5:MEP50 complex was incubated with compounds in a buffer consisting of 50 mM Tris-HCl pH 8.0, 50 mM NaCl, 1 mM TCEP, and 4xSypro Orange (Thermo Fisher, S-6650) in the absence or presence of cofactor (10 µM SIN, 10 µM SAM, or 5 µM MTA) and read on a StepOne™ Real-Time PCR machine (Applied Biosystems™) using a temperature ramp of 0.5 °C/min over a range of 25 to 95 °C.
# [5] = Blood/tumor compound concentrations in contralateral tumor model; assay type: in vivo, mouse; settings: 4 h post last dose, 50-200 mg/kg
# Experimental: HCT116 colon carcinoma WT and MTAP^−^/^− isogenic cells were determined to be free of contamination with mycoplasma as well as a panel of murine viral pathogens in addition to being authenticated. Mice were inoculated s.c. with 2 × 10^6 HCT116 WT cells on the left flank and 2 × 10^6 HCT116 MTAP^−^/^− cells on the right flank in 33% Matrigel. Mice were enrolled once both tumors reached 250 to 500 mm^3 and randomized into vehicle vs. PRMT5i treated groups (N = 3). Vehicle or PRMT5i treatment started on day 14 postimplantation orally and treated once daily for 4 d. Blood was collected at 4 h post–last dose (day 17 postimplantation) for pharmacokinetic analysis in Microtainer tubes containing lithium heparin. Blood was centrifuged at 7,000 rpm at 4 °C for 7 min. Tumors from both sides were also collected and snap-frozen for pharmacokinetic analysis and SDMA ELISA. Plasma and tumors were collected and stored at −80 °C until analysis.
# [6] = test system: HCT116 MTAP WT tumors; test: Contralateral tumor model, tumor SDMA ELISA, WT tumors; assay type: in vivo, mouse; settings: parental (MTAP WT) tumors, daily for 4 d
# Experimental: as §1, §2, §3
# [7] = in vitro; settings: human, primary bone marrow-derived megakaryocytes
# [8] = test system: MTAP-deleted HCT116 cells; test: SDMA high-content imaging assay, MTAP-deleted cells; assay type: cell-based; settings: Homo sapiens, HCT-116, 72 h, read-out: IC50, reduction of cellular SDMA
# Experimental: as §4
# [9] = test system: Parental HCT116 cells (MTAP WT); test: Cell viability (CellTiter-Glo), parental cells; assay type: cell-based; settings: Homo sapiens, read-out: IC50, cell viability
# Experimental: as §5
# [10] = test system: MTAP-deleted HCT116 cells; test: Cell viability (CellTiter-Glo), MTAP-deleted cells; assay type: cell-based; settings: Homo sapiens, read-out: IC50, cell viability
# Experimental: as §5
# [11] = test system: arginine-, lysine-, and DNA-methyltransferases; test: Methyltransferase panel profiling (BPS Bioscience): other methyltransferases; settings: tested up to 10 µM
# [12] = test system: MTAP null tumors; parameters: method as in PMID 39282709; settings: patients with MTAP null tumors; cited from earlier work
compound,measurement,setting,value
Cc1cc2cc(C(=O)N(Cc3ccc(C(F)(F)F)cn3)CC(C)C)ccc2nc1N [AM-9934],suppression of tumor SDMA levels (in words),[1],all three doses reached significant levels of SDMA suppression
same,IC50,[2],143 nM
same,discrimination of viability potency by MTAP status,[3],significantly higher potency toward MTAP-deleted cell lines
same,stabilization in the presence of MTA,"[4]; MTA-bound complex, compound 0.1 µM",9.3 K
same,exposures (blood/tumor compound concentrations),[5],exposures increased with dose
same,suppression of tumor SDMA levels (in words),[6],insignificant at lower doses
same,IC50,[7],3100 nM
same,IC50,[8],9.2 nM
same,IC50,"[9]; HCT-116, […]",4100 nM
same,IC50,"[10]; HCT-116, […]",160 nM
same,inhibitory activity toward the other tested methyltransferases,[11],No significant inhibitory activity
Nc1nc2cnc(C(=O)N3CCOC[C@@H]3c3ccc(C(F)(F)F)cc3)cc2c2c1COC2 [AMG 193],antitumor responses in patients,[12],initial antitumor responses
O=C(NC[C@H](O)CN1CCc2ccccc2C1)c1cc(NC2COC2)ncn1 [EPZ015666],IC50,"[2]; parental HCT116, 3 d incubation",9.6 nM
same,discrimination of viability potency by MTAP status,[3],did not significantly discriminate
same,stabilization of the MTA-bound complex,"[4]; MTA-bound complex, compound 10 µM",no stabilization
same,stabilization of the SAM-bound complex,"[4]; SAM-bound complex, compound 10 µM",showed an interaction
same,stabilization of the SIN-bound complex,"[4]; SIN-bound complex, compound 10 µM",showed an interaction
same,IC50,[7],360 nM
same,IC50,"[8]; MTAP-deleted HCT116, 3 d incubation",4.3 nM
same,IC50,"[9]; HCT-116, parental HCT116, 6 d incubation",890 nM
same,IC50,"[10]; HCT-116, MTAP-deleted HCT116, 6 d incubation",600 nM
CC(=O)N1CCC(Nc2cc(C(=O)NC[C@H](O)CN3CCc4ccccc4C3)ncn2)CC1 [GSK3326595],suppression of tumor SDMA levels (in words),[1],marked suppression
same,suppression of tumor SDMA levels (in words),[6],marked suppression
"CSC[C@H]1O[C@@H](n2cnc3c(N)ncnc32)[C@H](O)[C@@H]1O [MTA, methylthioadenosine]",stabilization of the complex by cofactor alone,[4],< 0.5 K
"C[S+](CC[C@H](N)C(=O)[O-])C[C@H]1O[C@@H](n2cnc3c(N)ncnc32)[C@H](O)[C@@H]1O (some centres unmarked) [SAM, S-Adenosyl methionine]",stabilization of the complex by cofactor alone,[4],< 0.5 K
"Nc1ncnc2c1ncn2[C@@H]1O[C@H](C[C@@H](N)CC[C@H](N)C(=O)O)[C@@H](O)[C@H]1O [SIN, sinefungin]",stabilization of the complex by cofactor alone,[4],< 0.5 K
